Experimental data taken from the supplement of paper PMC10307832.

Legend:
Test in all cases: relative viability (nuclei count vs DMSO), 5 days (fraction); higher = more cells survive
[1] = compound: C1=CC=C(C(=C1)C2=CC=C(C=C2)C3=CSC4=C3C(=C(C(=O)N4)C#N)O)O + N=C(N)NC(=N)NCCc1ccccc1 [Phenformin] (partner 250 µM)
Procedure, shortened: (§1)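 A single step with final 0.05% Triton X-100, 1% formaldehyde and 1 ug/ml Hoechst fixed the cells and stained nuclei 5 days after treatment. Lung cancer cell lines in 1536-well plates had been treated by pin tool the day after seeding with one drug alone or a fixed anchor-drug dose plus five library-drug doses (not always all listed) in √10 steps, and nuclei were counted on 4× images. Relative viability is the ratio of nuclei in treated wells to nuclei in vehicle wells, taken as the median of duplicate plates.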

TGX 221 + Luminespib = compound: CC1=CN2C(=O)C=C(N=C2C(=C1)C(C)NC3=CC=CC=C3)N4CCOCC4 [TGX 221] + CCNC(=O)c1noc(-c2cc(C(C)C)c(O)cc2O)c1-c1ccc(CN2CCOCC2)cc1 [Luminespib] (partner 0.01 µM)
Procedure, shortened: as §1

TGX 221 + Crizotinib = compound: CC1=CN2C(=O)C=C(N=C2C(=C1)C(C)NC3=CC=CC=C3)N4CCOCC4 [TGX 221] + C[C@@H](Oc1cc(-c2cnn(C3CCNCC3)c2)cnc1N)c1c(Cl)ccc(F)c1Cl [Crizotinib] (partner 1 µM)
Procedure, shortened: as §1

Ricolinostat + Lapatinib = compound: O=C(CCCCCCNC(=O)c1cnc(N(c2ccccc2)c2ccccc2)nc1)NO [Ricolinostat] + CS(=O)(=O)CCNCc1ccc(-c2ccc3ncnc(Nc4ccc(OCc5cccc(F)c5)c(Cl)c4)c3c2)o1 [Lapatinib] (partner 2 µM)
Procedure, shortened: as §1

Cell Line	relative viability ([1]; first compound 0.08 µM)	relative viability ([1]; first compound 0.253 µM)	relative viability ([1]; first compound 0.8 µM)	relative viability ([1]; first compound 2.53 µM)	relative viability ([1]; first compound 8 µM)	relative viability (TGX 221 + Luminespib; first compound 0.08 µM)	relative viability (TGX 221 + Luminespib; first compound 0.253 µM)	relative viability (TGX 221 + Luminespib; first compound 0.8 µM)	relative viability (TGX 221 + Luminespib; first compound 2.53 µM)	relative viability (TGX 221 + Luminespib; first compound 8 µM)	relative viability (TGX 221 + Crizotinib; first compound 0.08 µM)	relative viability (TGX 221 + Crizotinib; first compound 0.253 µM)	relative viability (TGX 221 + Crizotinib; first compound 0.8 µM)	relative viability (TGX 221 + Crizotinib; first compound 2.53 µM)	relative viability (TGX 221 + Crizotinib; first compound 8 µM)	relative viability (Ricolinostat + Lapatinib; first compound 0.08 µM)	relative viability (Ricolinostat + Lapatinib; first compound 0.8 µM)	relative viability (Ricolinostat + Lapatinib; first compound 2.53 µM)	relative viability (Ricolinostat + Lapatinib; first compound 0.253 µM)
NCI-H1755	0.693	0.647	0.606	0.617	0.6	0.441	0.65	0.33	0.394	0.258	0.873	0.863	0.827	0.752	0.607	0.812	1.02	1.01	–
NCI-H1915	0.342	0.32	–	0.376	0.325	0.726	0.747	0.745	0.757	0.725	0.864	0.83	0.942	0.9	0.813	0.965	0.858	0.965	0.958
NCI-H1944	0.155	0.207	0.166	0.215	0.175	0.649	0.742	0.795	0.587	0.399	1.07	1.03	1.02	1.09	0.863	0.638	0.819	0.854	0.85
NCI-H1975	0.379	0.425	0.403	0.393	0.394	0.151	0.2	0.138	0.2	0.145	0.985	0.878	0.996	0.935	0.803	0.878	–	0.664	0.914
NCI-H1993	0.49	0.424	0.55	0.473	0.529	0.781	0.711	0.724	0.869	0.805	0.778	0.815	0.951	0.807	0.774	0.714	0.796	0.91	0.867
NCI-H2009	0.443	0.505	0.457	0.496	0.387	1.05	1.02	1.09	1.02	0.665	0.964	0.978	1	1.03	0.773	0.812	0.832	0.74	0.887
NCI-H2023	0.342	0.351	0.429	0.466	0.37	0.711	0.555	0.685	0.603	0.386	0.594	0.532	0.689	0.591	0.463	0.552	0.792	0.487	0.91
NCI-H2085	0.765	0.951	0.665	0.685	0.568	0.518	0.361	0.335	0.223	0.319	0.804	0.878	0.915	0.806	0.505	–	0.715	0.573	0.679
NCI-H2087	0.441	0.481	0.464	0.366	0.362	0.118	0.16	0.151	0.15	0.166	1.02	1.01	0.802	0.979	1.19	1.07	0.921	0.698	1.05
NCI-H2126	0.504	0.575	0.471	0.527	0.621	0.909	0.832	0.842	0.764	0.808	0.992	1.04	0.963	0.975	0.966	0.615	0.719	0.801	0.751
NCI-H2170	0.38	0.423	0.441	0.403	0.375	0.67	0.638	0.541	0.593	0.639	1.11	1.2	1.19	0.987	1.14	0.23	0.28	0.264	0.277
NCI-H2228	0.316	0.318	0.322	0.307	0.225	0.123	0.146	0.108	0.136	0.153	0.399	0.288	0.354	0.327	0.384	0.876	1.11	0.574	0.88
NCI-H2347	0.265	0.429	0.496	0.342	0.419	0.595	0.335	0.437	0.325	0.274	0.67	0.666	0.635	0.701	0.542	0.849	0.874	0.82	0.908
NCI-H2405	0.266	0.381	0.385	0.445	0.37	0.622	0.533	0.599	0.623	0.47	0.792	0.834	0.769	0.757	0.671	0.858	1.08	1.04	1.04
NCI-H3122	0.352	0.364	0.432	0.387	0.37	0.1	0.0831	0.0649	0.0793	0.116	0.278	0.227	0.281	0.294	0.356	0.972	1.07	0.973	1.01
PC-3 [JPC-3]	0.452	0.454	0.44	0.488	0.516	0.584	0.651	0.693	0.73	0.681	0.988	0.991	1.04	0.912	0.994	0.351	0.414	0.475	0.466
PC-14	0.489	0.676	0.561	0.555	0.355	0.146	0.135	0.138	0.133	0.151	0.934	0.845	0.865	0.85	0.885	0.243	0.263	0.172	0.291
RERF-LC-KJ	0.397	0.492	0.412	0.454	0.352	1.13	1.13	1.26	1.21	1.02	0.736	0.832	0.752	0.781	0.795	0.828	0.858	0.808	0.864
SK-LU-1	0.378	0.44	0.538	0.639	0.566	0.189	0.191	0.201	0.205	0.181	0.836	0.809	0.901	0.825	0.803	0.75	0.854	0.653	0.782
SK-MES-1	0.643	0.682	0.659	0.708	0.615	0.664	0.721	0.639	0.324	0.229	1.05	0.982	0.998	0.841	0.582	0.403	0.439	0.456	0.466
SW 1573	0.343	0.351	0.343	0.333	0.233	0.211	0.353	0.247	0.221	0.278	0.723	0.72	0.74	0.769	0.756	0.941	1.12	1	1.23
UMC-11	0.309	0.404	0.344	0.291	0.27	1.03	0.957	1.03	1.04	1.09	0.66	0.559	0.557	0.591	0.661	0.699	0.906	0.314	0.944
